Experiments:
[1] = biological target: T1, human recombinant kinase full-length AKT1 E17K (Homo sapiens, UniProt P31749, E17K); test: AKT1 E17K kinase assay (TR-FRET, Lance); type: biochemical; details: 0.6 nM AKT1 E17K, 50 nM Ulight-CREBtide, either 50 μM ATP or 2 mM ATP, 60 min at RT
T1 construct: Purified human recombinant kinase full-length AKT1 E17K was expressed in insect cells; made in house; host or cells: insect cells
Summary of the method: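 IC50 came from a 10-point, 4-parameter fit of the 665/620 TR-FRET ratio read with Eu-anti-phospho-CREB (Ser133). Reaction at RT for 60 min after 15 min compound preincubation, using 0.6 nM PDPK1-activated full-length AKT1 E17K (insect-cell), 50 nM Ulight-CREBtide, ATP at 50 μM or 2 mM, HEPES pH 7.5, 1% DMSO.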

[2] = biological target: T2, human recombinant kinase full-length wildtype AKT1 (Homo sapiens, UniProt P31749); test: AKT1 kinase assay (wildtype, TR-FRET, Lance); type: biochemical; details: 0.6 nM wildtype AKT1, 50 nM Ulight-CREBtide, either 50 μM ATP or 2 mM ATP, 60 min at RT
T2 construct: Purified human recombinant kinase full-length wildtype AKT1 was expressed in insect cells; made in house; host or cells: insect cells
Summary of the method: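 TR-FRET 665/620 ratio quantified phospho-CREBtide formed by PDPK1-activated full-length human AKT1 (0.6 nM, insect-cell-derived) over 60 min at RT with 50 nM ULight-CREBtide and either 50 μM or 2 mM ATP. Compounds were preincubated 15 min with enzyme; IC50 came from 4-parameter fits of 10-point duplicates.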

T2 sequence (P31749 whole entry): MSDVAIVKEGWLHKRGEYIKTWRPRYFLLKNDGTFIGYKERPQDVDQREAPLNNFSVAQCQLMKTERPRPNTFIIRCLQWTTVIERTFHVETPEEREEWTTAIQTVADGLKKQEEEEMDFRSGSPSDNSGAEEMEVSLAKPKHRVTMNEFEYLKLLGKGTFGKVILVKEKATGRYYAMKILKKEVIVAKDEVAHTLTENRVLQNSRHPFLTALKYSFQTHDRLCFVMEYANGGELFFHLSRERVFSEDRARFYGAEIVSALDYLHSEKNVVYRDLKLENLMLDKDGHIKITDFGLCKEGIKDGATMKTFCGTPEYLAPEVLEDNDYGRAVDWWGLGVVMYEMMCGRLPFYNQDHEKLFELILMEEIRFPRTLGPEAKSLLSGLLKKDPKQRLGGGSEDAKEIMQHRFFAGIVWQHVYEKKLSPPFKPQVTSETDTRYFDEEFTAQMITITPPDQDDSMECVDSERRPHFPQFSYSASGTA
T1 sequence (P31749 whole entry E17K): as the sequence (P31749 whole entry) above, with E17K counted along it

Compound | IC50 [1] [nM] | IC50 [2] [nM]
Nc1ncccc1-c1nc2ccc(-c3ccccc3)nc2n1-c1ccc(C2CN(C(=O)C3CC(=O)CC(=O)C3)C2)cc1 [Compound I-37, 5-(3-(4-(2-(2-aminopyridin-3-yl)-5-phenyl-3H-imidazo[4,5-b]pyridin-3-yl)phenyl)azetidine-1-carbonyl)cyclohexane-1,3-dione] | < 500 | < 20000
Nc1ncccc1-c1nc2ccc(-c3ccccc3)nc2n1-c1ccc(CNC(=O)C2CC(=O)CC(=O)C2)cc1 [Compound I-38, N-(4-(2-(2-aminopyridin-3-yl)-5-phenyl-3H-imidazo[4,5-b]pyridin-3-yl)benzyl)-3,5-dioxocyclohexane-1-carboxamide] | < 500 | < 20000
CC(C)(C(=O)O)C1CCN(c2ccc(-n3c(-c4cccnc4N)nc4ccc(-c5ccccc5)nc43)cn2)C1 (stereo not shown) [Compound I-39, 2-(1-(5-(2-(2-aminopyridin-3-yl)-5-phenyl-3H-imidazo[4,5-b]pyridin-3-yl)pyridin-2-yl)pyrrolidin-3-yl)-2-methylpropanoic acid] | ≥ 2000 | < 20000
Nc1ncccc1-c1nc2ccc(-c3ccc(F)cc3)nc2n1-c1ccc(NC(=O)[C@H]2CC[C@H](C(=O)O)CC2)nc1 [Compound I-40, (1r,4r)-4-((5-(2-(2-aminopyridin-3-yl)-5-(4-fluorophenyl)-3H-imidazo[4,5-b]pyridin-3-yl)pyridin-2-yl)carbamoyl)cyclohexane-1-carboxylic acid] | < 500 | < 20000
Nc1ncccc1-c1nc2ccc(-n3cccn3)nc2n1-c1ccc(NC(=O)[C@H]2CC[C@H](C(=O)O)CC2)nc1 [Compound I-41, (1r,4r)-4-((5-(2-(2-aminopyridin-3-yl)-5-(1H-pyrazol-1-yl)-3H-imidazo[4,5-b]pyridin-3-yl)pyridin-2-yl)carbamoyl)cyclohexane-1-carboxylic acid] | < 500 | < 20000
Nc1ncccc1-c1nc2ccc(-c3ccccc3)nc2n1-c1ccc(NC[C@H]2CC[C@H](C(=O)O)CC2)nc1 [Compound I-43, (1r,4r)-4-(((5-(2-(2-aminopyridin-3-yl)-5-phenyl-3H-imidazo[4,5-b]pyridin-3-yl)pyridin-2-yl)amino)methyl)cyclohexane-1-carboxylic acid] | < 500 | < 20000
Nc1ncccc1-c1nc2ccc(-c3ccccc3)nc2n1-c1ccc(NC(=O)C2CC3(CC(C(=O)O)C3)C2)cc1 (stereo not shown) [Compound I-46, 6-[[4-[2-(2-amino-3-pyridyl)-5-phenyl-imidazo[4,5-b]pyridin-3-yl]phenyl]carbamoyl]spiro[3.3]heptane-2-carboxylic acid] | < 500 | < 20000
Nc1ncccc1-c1nc2ccc(-c3ccccc3)nc2n1-c1ccc(NC(=O)C2CC3(CC(C(=O)O)C3)C2)c(F)c1 (stereo not shown) [Compound I-47, 6-((4-(2-(2-aminopyridin-3-yl)-5-phenyl-3H-imidazo[4,5-b]pyridin-3-yl)-2-fluorophenyl)carbamoyl)spiro[3.3]heptane-2-carboxylic acid] | < 500 | < 20000
Nc1ncccc1-c1nc2ccc(-c3ccccc3)nc2n1-c1ccc(NC(=O)C2CC3C(C2)C3C(=O)O)nc1 (stereo not shown) [Compound I-48, 3-((5-(2-(2-aminopyridin-3-yl)-5-phenyl-3H-imidazo[4,5-b]pyridin-3-yl)pyridin-2-yl)carbamoyl)bicyclo[3.1.0]hexane-6-carboxylic acid] | < 500 | < 20000
Nc1ncccc1-c1nc2ccc(-c3ccccc3)nc2n1-c1ccc(NC(=O)N2CCC(C(=O)O)C2)cc1 (stereo not shown) [Compound I-52, 1-[[4-[2-(2-amino-3-pyridyl)-5-phenyl-imidazo[4,5-b]pyridin-3-yl]phenyl]carbamoyl]pyrrolidine-3-carboxylic acid] | < 500 | < 20000
Nc1ncccc1-c1nc2ccc(-c3ccccc3)nc2n1-c1ccc(NC(=O)N2CCC(C(=O)O)CC2)cc1 [Compound I-53, 1-[[4-[2-(2-amino-3-pyridyl)-5-phenyl-imidazo[4,5-b]pyridin-3-yl]phenyl]carbamoyl]piperidine-4-carboxylic acid] | < 500 | < 20000
Nc1ncccc1-c1nc2ccc(-c3ccccc3)nc2n1-c1ccc(C2CN(C[C@H]3CC[C@H](C(=O)O)CC3)C2)cc1 [Compound I-57, (1r,4r)-4-((3-(4-(2-(2-aminopyridin-3-yl)-5-phenyl-3H-imidazo[4,5-b]pyridin-3-yl)phenyl)azetidin-1-yl)methyl)cyclohexane-1-carboxylic acid] | < 500 | < 20000
Nc1ncccc1-c1nc2ccc(-c3ccccc3)nc2n1-c1ccc(C2CN(C[C@@H]3CC[C@H](C(=O)O)C3)C2)cc1 [Compound I-58, (1S,3R)-3-((3-(4-(2-(2-aminopyridin-3-yl)-5-phenyl-3H-imidazo[4,5-b]pyridin-3-yl)phenyl)azetidin-1-yl)methyl)cyclopentane-1-carboxylic acid] | < 500 | < 20000
C[C@H]([C@H]1CC[C@H](C(=O)O)CC1)N1CC(c2ccc(-n3c(-c4cccnc4N)nc4ccc(-c5ccccc5)nc43)cc2)C1 [Compound I-59, (1R,4r)-4-((R)-1-(3-(4-(2-(2-aminopyridin-3-yl)-5-phenyl-3H-imidazo[4,5-b]pyridin-3-yl)phenyl)azetidin-1-yl)ethyl)cyclohexane-1-carboxylic acid] | < 500 | < 20000
C[C@@H]([C@H]1CC[C@H](C(=O)O)CC1)N1CC(c2ccc(-n3c(-c4cccnc4N)nc4ccc(-c5ccccc5)nc43)cc2)C1 [Compound I-60, (1S,4r)-4-((S)-1-(3-(4-(2-(2-aminopyridin-3-yl)-5-phenyl-3H-imidazo[4,5-b]pyridin-3-yl)phenyl)azetidin-1-yl)ethyl)cyclohexane-1-carboxylic acid] | 500 to 2000 | < 20000
Nc1ncccc1-c1nc2ccc(-c3ccccc3)nc2n1-c1ccc(C2CN(C[C@@H]3CC[C@@H](C(=O)O)C3)C2)cc1 [Compound I-61, (1R,3R)-3-((3-(4-(2-(2-aminopyridin-3-yl)-5-phenyl-3H-imidazo[4,5-b]pyridin-3-yl)phenyl)azetidin-1-yl)methyl)cyclopentane-1-carboxylic acid] | < 500 | < 20000
Nc1ncccc1-c1nc2ccc(-c3ccccc3)nc2n1-c1ccc(C2CN(C[C@H]3CC[C@H](C(=O)O)CC3)C2)c(F)c1 [Compound I-62, (1r,4r)-4-((3-(4-(2-(2-aminopyridin-3-yl)-5-phenyl-3H-imidazo[4,5-b]pyridin-3-yl)-2-fluorophenyl)azetidin-1-yl)methyl)cyclohexane-1-carboxylic acid] | 500 to 2000 | < 20000
Nc1ncccc1-c1nc2ccc(-c3ccccc3)nc2n1-c1ccc(C2CN(C[C@H]3CC[C@@H](C(=O)O)CC3)C2)c(F)c1 [Compound I-63, (1s,4s)-4-((3-(4-(2-(2-aminopyridin-3-yl)-5-phenyl-3H-imidazo[4,5-b]pyridin-3-yl)-2-fluorophenyl)azetidin-1-yl)methyl)cyclohexane-1-carboxylic acid] | 500 to 2000 | < 20000
Nc1ncccc1-c1nc2ccc(-c3ccccc3)nc2n1-c1ccc(C2CN(CC3CCC(C(=O)O)CC3)C2)nc1 (stereo not shown) [Compound I-64, 4-((3-(5-(2-(2-aminopyridin-3-yl)-5-phenyl-3H-imidazo[4,5-b]pyridin-3-yl)pyridin-2-yl)azetidin-1-yl)methyl)cyclohexane-1-carboxylic acid] | ≥ 2000 | < 20000
Nc1ncccc1-c1nc2cc(-c3ccccc3)cnc2n1-c1ccc(C2CN(C[C@H]3CC[C@H](C(=O)O)CC3)C2)cc1 [Compound I-65, (1r,4r)-4-((3-(4-(2-(2-aminopyridin-3-yl)-6-phenyl-3H-imidazo[4,5-b]pyridin-3-yl)phenyl)azetidin-1-yl)methyl)cyclohexane-1-carboxylic acid] | ≥ 2000 | < 20000
Nc1ncccc1-c1nc2ccc(-c3ccc(F)cc3)nc2n1-c1ccc(C2CN(C[C@H]3CC[C@H](C(=O)O)CC3)C2)cc1 [Compound I-66, (1r,4r)-4-((3-(4-(2-(2-aminopyridin-3-yl)-5-(4-fluorophenyl)-3H-imidazo[4,5-b]pyridin-3-yl)phenyl)azetidin-1-yl)methyl)cyclohexane-1-carboxylic acid] | 500 to 2000 | < 20000
Nc1ncccc1-c1nc2cc(-c3ccc(F)cc3)cnc2n1-c1ccc(C2CN(C[C@H]3CC[C@H](C(=O)O)CC3)C2)cc1 [Compound I-67, (1r,4r)-4-((3-(4-(2-(2-aminopyridin-3-yl)-6-(4-fluorophenyl)-3H-imidazo[4,5-b]pyridin-3-yl)phenyl)azetidin-1-yl)methyl)cyclohexane-1-carboxylic acid] | ≥ 2000 | < 20000
Nc1ncccc1-c1nc2ccc(-c3ccccn3)cc2n1-c1ccc(C2CN(C[C@H]3CC[C@H](C(=O)O)CC3)C2)cc1 [Compound I-68, (1r,4r)-4-((3-(4-(2-(2-aminopyridin-3-yl)-6-(pyridin-2-yl)-1H-benzo[d]imidazol-1-yl)phenyl)azetidin-1-yl)methyl)cyclohexane-1-carboxylic acid] | ≥ 2000 | < 20000

Reference: patent US20260200920A1, “SUBSTITUTED AMINOPYRIDINE COMPOUNDS FOR USE AS AKT1 INHIBITORS” (Atavistik Bio, Inc., priority 2023, published 2026)
